Results taken from PMC8848500 (Bioorganic & medicinal chemistry, 2020).

Molecular target: T1, human neutrophil elastase (HNE) (Homo sapiens, UniProt P08246)
T1 sequence (P08246 30-267): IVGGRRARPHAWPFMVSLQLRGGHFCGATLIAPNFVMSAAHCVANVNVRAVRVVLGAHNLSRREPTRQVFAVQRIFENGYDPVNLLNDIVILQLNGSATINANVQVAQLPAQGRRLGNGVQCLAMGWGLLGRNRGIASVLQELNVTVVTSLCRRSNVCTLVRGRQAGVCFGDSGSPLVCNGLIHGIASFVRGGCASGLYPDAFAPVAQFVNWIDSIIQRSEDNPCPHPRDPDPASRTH
Test: HNE inhibition assay
Type: biochemical
Settings: not given

SMILES	IC50	HNE inhibitory activity (in words)
N#Cc1nn(Cc2ccccc2)c2ncccc12 [Compound 2c, 1-Benzyl-1H-pyrazolo[3,4-b]pyridine-3-carbonitrile]	> 50 µM	complete loss of HNE inhibitory activity
N#Cc1nn(C(=O)c2ccccc2)c2ncccc12 [Compound 2d, 1-Benzoyl-1H-pyrazolo[3,4-b]pyridine-3-carbonitrile]	0.14 µM	
N#Cc1nn(C(=O)C2CCCCC2)c2ncccc12 [Compound 2i, 1-(Cyclohexanecarbonyl)-1H-pyrazolo[3,4-b]pyridine-3-carbonitrile]		loss of activity
O=C(Nc1nn(C(=O)C2CC2)c2ncccc12)C1CC1 [Compound 7, N-(1-(Cyclopropanecarbonyl)-1H-pyrazolo[3,4-b]pyridin-3-yl)cyclopropanecarboxamide]	1.5 ± 0.14 µM	
CC(=O)n1nc(NC(=O)c2cccc(C)c2)c2cccnc21 [Compound 9, N-(1-Acetyl-1H-pyrazolo[3,4-b]pyridin-3-yl)-3-methylbenzamide]	25.2 ± 1.3 µM	
Cc1cccc(C(=O)n2cc(C#N)c3ccncc32)c1 [Compound 13e, 1-(3-Methylbenzoyl)-1H-pyrrolo[2,3-c]pyridine-3-carbonitrile]		reduced activity compared to the reference compounds B and C
N#Cc1cn(C(=O)C2CC2)c2cnccc12 [Compound 13f, 1-(Cyclopropanecarbonyl)-1H-pyrrolo[2,3-c]pyridine-3-carbonitrile]		reduced activity compared to the reference compounds B and C
O=C(C1CC1)n1ccc2nccnc21 [Compound 15b, Cyclopropyl(5H-pyrrolo[2,3-b]pyrazin-5-yl)methanone]		reduced activity by two orders of magnitude

The next lines start with results.

IC50	SMILES	HNE inhibitory activity (in words)
> 50 µM	COc1cccc(NC(=O)c2cnc3cc(C)nn3c2C)c1 [Compound 22a, N-(3-Methoxyphenyl)-2,7-dimethylpyrazolo[1,5-a]pyrimidine-6-carboxamide]	
> 50 µM	COc1cccc(NC(=O)c2cnc3cc(C(C)(C)C)nn3c2C)c1 [Compound 22b, 2-(tert-Butyl)-N-(3-methoxyphenyl)-7-methylpyrazolo[1,5-a]pyrimidine-6-carboxamide]	
> 50 µM	COc1cccc(NC(=O)c2cnc3c(Cl)c(C(C)(C)C)nn3c2C)c1 [Compound 22c, 2-(tert-Butyl)-3-chloro-N-(3-methoxyphenyl)-7-methylpyrazolo[1,5-a]pyrimidine-6-carboxamide]	
> 50 µM	COc1cccc(CNC(=O)c2cnc3cc(C)nn3c2C)c1 [Compound 22d, N-(3-Methoxybenzyl)-2,7-dimethylpyrazolo[1,5-a]pyrimidine-6-carboxamide]	
> 50 µM	COc1cccc(CNC(=O)c2cnc3cc(C(C)(C)C)nn3c2C)c1 [Compound 22e, 2-(tert-Butyl)-N-(3-methoxybenzyl)-7-methylpyrazolo[1,5-a]pyrimidine-6-carboxamide]	
> 50 µM	COc1cccc(CNC(=O)c2cnc3c(Cl)c(C(C)(C)C)nn3c2C)c1 [Compound 22f, 2-(tert-Butyl)-3-chloro-N-(3-methoxybenzyl)-7-methylpyrazolo[1,5-a]pyrimidine-6-carboxamide]	

Same assay, conditions: HNE IC50 versus reference A

SMILES	fold less potent than A
Cc1cccc(C(=O)n2nc(C#N)c3cccnc32)c1 [Compound 2e, 1-(3-Methylbenzoyl)-1H-pyrazolo[3,4-b]pyridine-3-carbonitrile]	47 fold

Test system: not listed separately
Test: Chemical stability at room temperature
Type: physicochemical
Settings: conversion to precursors 14 and 18

chemical stability	SMILES
not chemically stable	Cc1cccc(C(=O)n2ccc3nccnc32)c1 [Compound 15a, (5H-Pyrrolo[2,3-b]pyrazin-5-yl)(m-tolyl)methanone]
not chemically stable	Cc1cccc(C(=O)n2cc(C#N)c3nccnc32)c1 [Compound 19a, 5-(3-Methylbenzoyl)-5H-pyrrolo[2,3-b]pyrazine-7-carbonitrile]
